US7122673B2, “Preparation of fused polycyclic alkaloids by ring closure of azomethine ylides, novel compounds thereof and their use as chemotherapeutic agents” (The Australian National University, priority 1997, dated 2006)

Assays:
fertilised sea urchin = fertilised sea urchin assay; background statement; cited from earlier work
P388 cell lines = conditions: cell line in culture; background statement; cited from earlier work
A549 cell lines = conditions: cell line in culture; background statement; cited from earlier work
lung cancer cell lines = conditions: acting as a Type IV microtubule poison; background statement; cited from earlier work

Compound	cytotoxicity against P388 (P388 cell lines)	cytotoxicity against A549 (A549 cell lines)	also measured
COc1cc(-c2c3n(c4c(=O)oc5cc(O)c(OC)cc5c24)CCc2cc(OC)c(OC)cc2-3)ccc1O [Compound 35, 10-Deoxylamellarin K]			melting point: 292 to 294 °C
COc1cc(-c2c3n(c4c(=O)oc5cc(O)c(OC)cc5c24)CCc2c-3cc(OC)c(OC)c2OC)ccc1O [Lamellarin C]			inhibition of cell division (fertilised sea urchin): inhibition of cell division
COc1cc(-c2c3c4cc(OC)c(O)cc4oc(=O)c3n3ccc4cc(O)c(OC)cc4c23)ccc1O [Lamellarin D]			inhibition of cell division (fertilised sea urchin): inhibition of cell division
COc1ccc(-c2c3n(c4c(=O)oc5cc(O)c(OC)cc5c24)CCc2cc(O)c(OC)cc2-3)cc1O [Lamellarin L]	comparable and significant cytotoxicity	comparable and significant cytotoxicity	
COc1ccc(-c2c3c4cc(OC)c(O)cc4oc(=O)c3n3ccc4cc(O)c(OC)cc4c23)cc1O [Lamellarin N]			activity in lung cancer cell lines (lung cancer cell lines): exhibit activity
Lamellarin I	comparable and significant cytotoxicity	comparable and significant cytotoxicity	
Lamellarin K	comparable and significant cytotoxicity	comparable and significant cytotoxicity	
